One assay deals with PSII. Also on record: species or system B6 mice. The settings on record: mouse, in vivo.
Assay [1] has as its system C. difficile VPI 10463 spores. Description: C. difficile spore challenge assay in immunized B6 mice (body weight). It counts as in vivo. The following applies: 10^4 spores. The method, then: Non-immunized age- and sex-matched naïve B6 mice were Cefoperazone-treated and then treated with vehicle only (a) or were infected with 10^4 live C. difficile spores (b). Some mice were administered PSII alone followed by a PSII booster one week later (c), or administered vehicle only followed by the PSII booster one week later (d), or administered α-GC alone followed by the PSII booster (e), or administered a PSII and α-GC combination followed by the PSII booster (f), or administered α-GC alone followed by vehicle (g). Animals were then treated with the antibiotic Cefoperazone prior to being infected with 10^4 live C. difficile spores. Graphs show the percent of original weight, which was obtained daily and for the duration indicated. Five mice were used for each group except for the naïve-infected and the PSII/α-GC groups (n=10). […] In the uninfected control group (a), zero counts were detected (limit of detection in assay=10^2).
Immunizations: Mice were immunized s.c. in both flanks with a total of 15 μg or 50 μg PSII or PSII plus 4 μg α-GC, in a 200 μl total volume of sterile low-endotoxin PBS. The amount of α-GC administered has been determined in previous studies to exert a strong CD1d- and NKT-dependent effect on Ab responses. […]
Animal weight was then measured daily. […]

Consider `CCCCCCCCCCCCCCCCCCCCCCCCCC(=O)N[C@@H](CO[C@H]1O[C@H](CO)[C@H](O)[C@H](O)[C@H]1O)[C@H](O)[C@H](O)CCCCCCCCCCCCCC` [α-GC, (2S,3S,4R)-1-O-(α-D-Galactosyl)-N-hexacosanoyl-2-amino-1,3,4-octadecanetriol], for which the Anti-PSII titers entry in the assay with PSII is recorded as “could not be detected”. In addition, the “Body weight after C. difficile challenge” value in assay [1] (α-GC alone, w/o a PSII booster (FIG. 6g)) is recorded as “did not protect against weight loss”; in assay [1] (α-GC followed one week later with PSII (FIG. 6e)), “no weight loss was observed”.

Source of the values: patent US10933126B2, “Clostridium difficile immunogenic compositions and methods of use” (The Board of Regents of the University of Oklahoma, priority 2018, dated 2021).
